Measured values from US20030198696A1, “Pesticide composition of plant oils and fish oils” (priority 2000, published 2003).

Tested on: citrus greasy spot
Assay: Test for citrus greasy spot control
Assay type: in vivo
Details: treatment amounts as printed in 250 gallons of water per acre, untreated control 0.510
Excerpt: Test for citrus greasy spot control. Treatments consisted of the following amounts of compounds in 250 gallons of water per acre: […]

Copper
Disease Incidence: 0.050
